# Patent US11090304B2 (Amgen Inc., priority 2018, dated 2021)
# Target: GDP-bound KRAS protein (aa 1-169), containing both G12C and C118A amino acid substitutions (Homo sapiens, UniProt P01116, C118A/G12C)
# Test: Coupled nucleotide exchange assay (SOS-mediated, AlphaScreen)
# Type: biochemical
# Details: 5 min compound pre-incubation
row,Coupled exchange IC50 (5 min),Molecule
1,1.42 | nda μM,"C=CC(=O)N1CCN(c2nc(=O)n(-c3ccccc3S(C)(=O)=O)c3nc(-c4c(O)cccc4F)c(Cl)cc23)[C@@H](C)C1 [Example 54-56, 6-chloro-7-(2-fluoro-6-hydroxyphenyl)-4-((2S)-2-methyl-4-(2-propenoyl)-1-piperazinyl)-1-(2-(methylsulfonyl)phenyl) pyrido[2,3-d]pyrimidin-2(1H)-one]"
2,3.9 | nda μM,"C=CC(=O)N1CCN(c2nc(=O)n(-c3ccccc3C(C)C)c3nc(-c4c(C)noc4C)c(Cl)cc23)[C@@H](C)C1 [Example 54-44, 6-chloro-7-(3,5-dimethyl-1,2-oxazol-4-yl)-4-((2S)-2-methyl-4-(2-propenoyl)-1-piperazinyl)-1-(2-(2-propanyl)phenyl)pyrido [2,3-d]pyrimidin-2(1H)-one]"
3,1.36 | nda μM,"C=CC(=O)N1CCN(c2nc(=O)n(-c3ccccc3C(C)C)c3nc(-c4cc(O)ccc4F)c(Cl)cc23)[C@@H](C)C1 (single isomer, unassigned) [Example 54-88-2]"
4,0.711 | nda μM,"C=CC(=O)N1C[C@H](C)N(c2nc(=O)n(-c3c(C)ccnc3C(C)C)c3nc(Cl)c(Cl)cc23)[C@@H](C)C1 (atropisomer, axis not shown; (M)) [Example 73-14, (M)-6,7-dichloro-4-((2S,6S)-2,6-dimethyl-4-(2-propenoyl)-1-piperazinyl)-1-(4-methyl-2-(2-propanyl)-3-pyridinyl)pyrido[2,3-d]pyrimidin-2(1H)-one]"
5,0.423 | nda μM,"C=CC(=O)N1CCN(c2nc(=O)n(-c3c(C)ccnc3C(C)C)c3nc(-c4ccccc4F)c(Cl)cc23)[C@@H](C(F)(F)F)C1 (single isomer, unassigned) [Example 78-9-2]"
6,5.32 | nda μM,"C=CC(=O)N1CCN(c2nc(=O)n(-c3scnc3C3CC3)c3nc(-c4ccccc4F)c(Cl)cc23)[C@@H](C)C1 [Example 56-4, 6-chloro-1-(4-cyclopropyl-1,3-thiazol-5-yl)-7-(2-fluorophenyl)-4-((2S)-2-methyl-4-(2-propenoyl)-1-piperazinyl)pyrido[2,3-d]pyrimidin-2(1H)-one]"
7,20.6 | nda μM,"C=CC(=O)N1CCN(c2nc(CO)c(C(=O)N3[C@@H](C)CC[C@@H]3C)c3nc(-c4ccccc4F)c(Cl)cc23)CC1 [Example 149, 1-(4-(3-Chloro-8-(((2S,5S)-2,5-dimethyl-1-pyrrolidinyl)carbonyl)-2-(2-fluorophenyl)-7-(hydroxymethyl)-1,6-naphthyridin-5-yl)-1-piperazinyl)-2-propen-1-one]"
8,1.46 | nda μM,"C=CC(=O)N1CCN(c2nc(=O)n(-c3c(C)cccc3CC)c3nc(-c4ccccc4F)c(F)cc23)[C@@H](C)C1 (single isomer, unassigned) [Example 57-13-1]"
9,84.25 | nda μM,"C=CC(=O)N1CCN(c2nc(=O)n(-c3c(CC)cccc3CC)c3nc(N4C[C@@H]5C[C@H]4CO5)c(Cl)cc23)[C@@H](C)C1 [Example 66-31, 6-chloro-1-(2,6-diethylphenyl)-4-((2S)-2-methyl-4-(2-propenoyl)-1-piperazinyl)-7-((1S,4S)-2-oxa-5-azabicyclo[2.2.1]heptan-5-yl)pyrido[2,3-d]pyrimidin-2(1H)-one]"
10,1.27 | nda μM,"C=CC(=O)N1CCN(c2nc(=O)n(-c3ccccc3C(C)C)c3nc(-c4ncccc4F)c(Cl)cc23)[C@@H](C)C1 [Example 54-92, 6-chloro-7-(3-fluoro-2-pyridinyl)-4-((2S)-2-methyl-4-(2-propenoyl)-1-piperazinyl)-1-(2-(2-propanyl)phenyl)pyrido [2,3-d]pyrimidin-2(1H)-one]"
11,2.15 | nda μM,"C=CC(=O)N1CCN(c2nc(=O)n(-c3c(C)cccc3C(C)C)c3nc(-c4c(O)cccc4F)c(F)cc23)C[C@@H]1C [Example 63-1, 6-Fluoro-7-(2-fluoro-6-hydroxyphenyl)-1-(2-methyl-6-(2-propanyl)phenyl)-4-((3S)-3-methyl-4-(2-propenoyl)-1-piperazinyl)pyrido[2,3-d]pyrimidin-2(1H)-one]"
12,2.87 | nda μM,"C=CC(=O)N1CCN(c2nc(=O)n(-c3ccccc3C(C)C)c3nc(-c4c(C)cnn4C)c(Cl)cc23)[C@@H](C)C1 [Example 67-3, 6-chloro-7-(1,4-dimethyl-1H-pyrazol-5-yl)-4-((2S)-2-methyl-4-(2-propenoyl)-1-piperazinyl)-1-(2-(2-propanyl)phenyl)pyrido[2,3-d]pyrimidin-2(1H)-one]"
13,2.45 | nda μM,"C=CC(=O)N1CCN(c2nc(=O)n(-c3c(C)cccc3C3CC3)c3nc(-c4ccccc4F)c(F)cc23)[C@@H](C)C1 [Example 58-14, 1-(2-cyclopropyl-6-methylphenyl)-6-fluoro-7-(2-fluorophenyl)-4-((2S)-2-methyl-4-(2-propenoyl)-1-piperazinyl)pyrido[2,3-d]pyrimidin-2(1H)-one]"
14,18.55 | nda μM,"C=CC(=O)N1CCN(c2nc(=O)n(-c3nccnc3C(C)(C)C)c3nc(-c4c(O)cccc4F)c(Cl)cc23)[C@@H](C)C1 (single isomer, unassigned) [Example 55-23-1]"
15,1.43 | nda μM,"C=CC(=O)N1CCN(c2nc(=O)n(-c3ccccc3C(C)C)c3nc(-c4ncc(F)cc4F)c(Cl)cc23)[C@@H](C)C1 [Example 54-93, 6-chloro-7-(3,5-difluoro-2-pyridinyl)-4-((2S)-2-methyl-4-(2-propenoyl)-1-piperazinyl)-1-(2-(2-propanyl)phenyl)pyrido [2,3-d]pyrimidin-2(1H)-one]"
16,4.89 | nda μM,"C=CC(=O)N1CCN(c2nc(=O)n(-c3c(C)cccc3C(C)C)c3nc(-c4nc(N)ccc4Cl)c(F)cc23)[C@@H](C)C1 (single isomer, unassigned) [Example 71-1-2]"
17,7.19 | nda μM,"C=CC(=O)N1CCN(c2nc(=O)n(-c3c(CC)cccc3CC)c3nc(-c4cccnc4C)c(Cl)cc23)[C@@H](C)C1 [Example 55-29, 6-chloro-1-(2,6-diethylphenyl)-4-((2S)-2-methyl-4-(2-propenoyl)-1-piperazinyl)-7-(2-methyl-3-pyridinyl)pyrido[2,3-d]pyrimidin-2(1H)-one]"
18,8.13 | nda μM,"C=CC(=O)N1CCN(c2nc(=O)n(-c3c(C)cccc3CC)c3nc(-c4ccccc4F)c(F)cc23)[C@@H](C)C1 (single isomer, unassigned) [Example 57-13-2]"
19,44.1 | nda μM,"C=CC(=O)N1CCN(c2nc(=O)n(-c3ccccc3C(C)C)c3nc(N4CCCCC4)c(Cl)cc23)[C@@H](C)C1 (single isomer, unassigned) [Example 69-1-1]"
20,1.67 | nda μM,"C=CC(=O)N1CCN(c2nc(=O)n(-c3ccccc3C(C)C)c3nc(-c4c(O)cccc4F)c(F)cc23)[C@@H](C)C1 [Example 57-6, 6-fluoro-7-(2-fluoro-6-hydroxyphenyl)-4-((2S)-2-methyl-4-(2-propenoyl)-1-piperazinyl)-1-(2-(2-propanyl)phenyl)pyrido[2,3-d]pyrimidin-2(1H)-one]"
21,1 | nda μM,"C=CC(=O)N1CCN(c2nc(=O)n(-c3ccccc3C(C)C)c3nc(-c4ccccc4F)c(CC)nc23)[C@@H](C)C1 [Example 108, 6-Ethyl-7-(2-fluorophenyl)-4-((2S)-2-methyl-4-(2-propenoyl)-1-piperazinyl)-1-(2-(2-propanyl)phenyl)-2(1H)-pteridinone]"
22,28.2 | nda μM,"C=CC(=O)N1CCN(c2nc(=O)n(-c3c(CC)cccc3CC)c3nc(N4CCC(CC)(CC)C4)c(Cl)cc23)[C@@H](C)C1 [Example 66-20, 6-chloro-1-(2,6-diethylphenyl)-7-(3,3-diethyl-1-pyrrolidinyl)-4-((2S)-2-methyl-4-(2-propenoyl)-1-piperazinyl)pyrido[2,3-d]pyrimidin-2(1H)-one]"
23,85 | nda μM,"C=CC(=O)NC1CN(c2nc(=O)n(-c3c(C)ccnc3C(C)C)c3nc(-c4c(O)cccc4F)c(F)cc23)C1 (single isomer, unassigned) [Example 75-6, (M)-N-(1-(6-fluoro-7-(2-fluoro-6-hydroxyphenyl)-1-(4-methyl-2-(2-propanyl)-3-pyridinyl)-2-oxo-1,2-dihydropyrido[2,3-d]pyrimidin-4-yl)-3-azetidinyl)-2-propenamide]"

# Same assay, conditions: 2 h compound pre-incubation
row,Coupled exchange IC50 (2 h),Molecule
1,nda | 3.14 μM,"C=CC(=O)N1CCN(c2nc(=O)n(-c3c(CC)cccc3CC)c3nc(-c4c(O)cccc4F)ccc23)[C@@H](C)C1 [Example 107, 1-(2,6-Diethylphenyl)-7-(2-fluoro-6-hydroxyphenyl)-4-((2S)-2-methyl-4-(2-propenoyl)-1-piperazinyl)pyrido[2,3-d]pyrimidin-2(1H)-one]"
2,nda | 7.62 μM,"C=CC(=O)N1CCN(c2nc(=O)n(CC3(C(F)(F)F)CC3)c3nc(Cl)c(Cl)cc23)CC1 [Example 60-2, 6,7-dichloro-4-(4-(2-propenoyl)-1-piperazinyl)-1-((1-(trifluoromethyl)cyclopropyl)methyl)pyrido[2,3-d]pyrimidin-2(1H)-one]"

# Same assay, conditions: read-out: Coupled exchange IC50 (5 min); 5 min compound pre-incubation
row,IC50 [µM],Molecule
1,0.548,"C=CC(=O)N1CCN(c2nc(=O)n(-c3c(C(C)C)ncc(O)c3C)c3nc(-c4ccccc4F)c(Cl)cc23)[C@@H](C)C1 (atropisomer, axis not shown; (P)) [Example 83-1, (P)-6-Chloro-7-(2-fluorophenyl)-1-(5-hydroxy-4-methyl-2-(2-propanyl)-3-pyridinyl)-4-((2S)-2-methyl-4-(2-propenoyl)-1-piperaninyl)pyrido[2,3-d]pyrimidin-2(1H)-one]"
2,2.92,"Mixture of (M)-6-chloro-7-((2R)-2-methyl-1-piperidinyl)-4-((2S)-2-methyl-4-(2-propenoyl)-1-piperazinyl)-1-(2-(2-propanyl)phenyl)pyrido[2,3-d]pyrimidin-2(1H)-one and (M)-6-chloro-7-((2S)-2-methyl-1-piperidinyl)-4-((2S)-2-methyl-4-(2-propenoyl)-1-piperazinyl)-1-(2-(2-propanyl)phenyl)pyrido[2,3-d]pyrimidin-2(1H)-one [Example 115]"
